pIC50: −log10 of the molar value. *1 amine or outer side, *2 acyl side, *3 side chain or, on linkers, in order; H or OH if unused. Where a SMILES comes first, the peptide text is derived from it. Bridges are numbered along the chain shown (N, C = ends). [ ]: non-standard residue; d: D form. ξ: configuration not given here. Trp(1-CH2COOH) = N[C@@H](Cc1cn(CC(=O)O)c2ccccc12)C(=O)O; Trp(βS-Me) = C[C@@H](c1c[nH]c2ccccc12)[C@H](N)C(=O)O; Phe(3,4,5-F3) = N[C@@H](Cc1cc(F)c(F)c(F)c1)C(=O)O; Phe(3,4-F2) = N[C@@H](Cc1ccc(F)c(F)c1)C(=O)O; 2Nal = N[C@@H](Cc1ccc2ccccc2c1)C(=O)O; d(cisHyp) = O=C(O)[C@H]1C[C@@H](O)CN1; Bta = N[C@@H](Cc1csc2ccccc12)C(=O)O; Hyp = O=C(O)[C@@H]1C[C@@H](O)CN1; NMeF = CN[C@@H](Cc1ccccc1)C(=O)O; X1 = O=C([C@H]1COCCN1[*:1])[*:2]; dNMeF = CN[C@H](Cc1ccccc1)C(=O)O; NMeNle = CCCC[C@H](NC)C(=O)O; dNle = CCCC[C@@H](N)C(=O)O; Pip = O=C(O)[C@@H]1CCCCN1; hSer = N[C@@H](CCO)C(=O)O; NMeA = CN[C@@H](C)C(=O)O; Orn = NCCC[C@H](N)C(=O)O; Dab = NCC[C@H](N)C(=O)O; Dap = NC[C@H](N)C(=O)O; ξPip = O=C(O)C1CCCCN1; ξC = NC(CS)C(=O)O; Sar = CNCC(=O)O

T1 sequence (Q9NZQ7 with tags, fused parts or gaps): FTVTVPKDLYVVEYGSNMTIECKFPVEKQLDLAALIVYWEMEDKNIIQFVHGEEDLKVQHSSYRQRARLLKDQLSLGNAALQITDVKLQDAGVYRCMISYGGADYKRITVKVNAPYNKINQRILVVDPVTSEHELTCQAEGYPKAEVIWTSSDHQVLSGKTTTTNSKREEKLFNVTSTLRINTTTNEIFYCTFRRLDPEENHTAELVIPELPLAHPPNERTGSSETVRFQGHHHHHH

This assay addresses T1, Human PD-L1/PD-1 (Homo sapiens, UniProt Q9NZQ7).
T1 construct: TVMV protease cleavage site (C); made in house; host or cells: HEK293T cells
The assay can be described thus: HTRF Human PD-L1/PD-1 binding assay (PD-1-Ig/PD-L1-His). The following applies: PD-L1-His 10 nM, PD-1-Ig 20 nM; class symbol; read-out: HTRF Human PD-L1/PD-1 Binding Assay IC50 Range. In short, it runs like this: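 Step 1: compound with PD-L1-His (10 nM final), 15 min. Step 2: PD-1-Ig (20 nM final), 15 min. Step 3: Eu-cryptate anti-Ig (1 nM) plus APC anti-His (20 nM), 30 min equilibration. Signal taken as 665 nm/620 nm ratio.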
In general terms: In TR-FRET formats the signal depends on donor and acceptor labels being close together.
On to `CCCC[C@H]1C(=O)N[C@@H](CC(=O)O)C(=O)N2CCC[C@H]2C(=O)N[C@@H](Cc2c[nH]cn2)C(=O)N[C@@H](CCC(N)=O)C(=O)N2C[C@H](O)C[C@H]2C(=O)N[C@@H]([C@@H](C)c2c[nH]c3ccccc23)C(=O)N[C@@H](CO)C(=O)N[C@@H](Cc2c[nH]c3ccccc23)C(=O)N(C)[C@@H](C)C(=O)N(C)[C@@H](C)C(=O)N[C@@H](CCC(=O)O)C(=O)N[C@H](C(=O)NCC(N)=O)CSCC(=O)N[C@@H](Cc2ccc(O)cc2)C(=O)N1C` [Example 10544] ({CH2CO}-Y[NMeNle]DPHQ[Hyp][Trp(βS-Me)]SW[NMeA][NMeA]ECG-NH2; thioether N-14), for which the pIC50 was 5.00 to 6.00.

In the case of `CCCC[C@H]1C(=O)N(C)[C@@H](CCCC)C(=O)N[C@@H](CCC(=O)O)C(=O)N[C@H](C(=O)NCC(N)=O)CSCC(=O)N[C@@H](Cc2ccc(O)cc2)C(=O)N(C)[C@@H](C)C(=O)N[C@@H](CC(N)=O)C(=O)N2CCC[C@H]2C(=O)N[C@@H](CN)C(=O)N[C@@H](CCC(N)=O)C(=O)N2C[C@H](O)C[C@H]2C(=O)N[C@@H](Cc2c[nH]c3ccccc23)C(=O)N[C@@H](CCN)C(=O)N[C@@H](Cc2c[nH]c3ccccc23)C(=O)N1C` [Example 5237] ({CH2CO}-Y[NMeA]NP[Dap]Q[Hyp]W[Dab]W[NMeNle][NMeNle]ECG-NH2; thioether N-14), the pIC50 is 8.00 to 9.00.

Regarding `CCCC[C@H]1C(=O)N(C)[C@@H](CCCC)C(=O)N[C@@H](CCCN)C(=O)NC(C(=O)NCC(N)=O)CSCC(=O)N[C@@H](Cc2ccc(O)cc2)C(=O)N(C)[C@@H](C)C(=O)N[C@@H](CC(N)=O)C(=O)N2CCC[C@H]2C(=O)N[C@@H](CC(N)=O)C(=O)N[C@@H](CC(C)C)C(=O)N2C[C@H](O)C[C@H]2C(=O)N[C@@H](Cc2c[nH]c3ccccc23)C(=O)N[C@@H](CO)C(=O)N[C@@H](Cc2csc3ccccc23)C(=O)N1C` (stereo partly drawn) [Example 9158] ({CH2CO}-Y[NMeA]NPNL[Hyp]WS[Bta][NMeNle][NMeNle][Orn][ξC]G-NH2; thioether N-14), the pIC50 was 8.00 to 9.00.

Regarding `CCCC[C@H]1C(=O)N(C)[C@@H](CCCC)C(=O)N[C@@H](CC(C)C)C(=O)N[C@H](C(=O)NCC(N)=O)CSCC(=O)N[C@@H](Cc2ccc(O)cc2)C(=O)N(C)[C@@H](C)C(=O)N[C@@H](CC(N)=O)C(=O)N2CCC[C@H]2C(=O)N[C@@H](CO)C(=O)N[C@@H](CCC(=O)O)C(=O)N2C[C@H](O)C[C@H]2C(=O)N[C@@H](Cc2c[nH]c3ccccc23)C(=O)N[C@@H](CCN)C(=O)N[C@@H](Cc2cn(CC(=O)O)c3ccccc23)C(=O)N1C` [Example 6266] ({CH2CO}-Y[NMeA]NPSE[Hyp]W[Dab][Trp(1-CH2COOH)][NMeNle][NMeNle]LCG-NH2; thioether N-14), the pIC50 was 7.00 to 8.00.

For `CCCC[C@H]1C(=O)N(C)CC(=O)N[C@@H](CC(=O)O)C(=O)N[C@@H](C(C)C)C(=O)N(C)[C@@H](Cc2ccccc2)C(=O)N[C@@H](Cc2ccc(O)cc2)C(=O)N(C)CC(=O)N[C@@H](Cc2c[nH]c3ccccc23)C(=O)N[C@@H](Cc2ccc(O)cc2)C(=O)N[C@@H](CC(C)C)C(=O)N[C@H](C(=O)NCC(N)=O)CSCC(=O)N[C@@H](Cc2ccc3ccccc3c2)C(=O)N(C)[C@@H](Cc2ccccc2)C(=O)N1C` [Example 3233] ({CH2CO}-[2Nal][NMeF][NMeNle][Sar]DV[NMeF]Y[Sar]WYLCG-NH2; thioether N-13), the pIC50 is 5.00 to 6.00.

As for `CCCC[C@H]1C(=O)N2C[C@H](O)C[C@@H]2C(=O)N[C@@H](CC(=O)O)C(=O)N[C@@H](C(C)C)C(=O)N(C)[C@H](Cc2ccccc2)C(=O)N[C@@H](CCN)C(=O)N2C[C@H](O)C[C@@H]2C(=O)N[C@@H](Cc2c[nH]c3ccccc23)C(=O)N[C@@H](Cc2ccc(O)cc2)C(=O)N[C@@H](CC(C)C)C(=O)N[C@H](C(=O)NCC(N)=O)CSCC(=O)N[C@@H](Cc2ccc(F)c(F)c2)C(=O)N(C)[C@@H](Cc2ccccc2)C(=O)N1C` [Example 9299] ({CH2CO}-[Phe(3,4-F2)][NMeF][NMeNle][d(cisHyp)]DV[dNMeF][Dab][d(cisHyp)]WYLCG-NH2; thioether N-13), the pIC50 was 8.00 to 9.00.

On to `CCCC[C@H]1NC(=O)[C@H](Cc2c[nH]c3ccccc23)NC(=O)[C@H](CO)NC(=O)[C@H](Cc2c[nH]c3ccccc23)NC(=O)[C@@H]2C[C@@H](O)CN2C(=O)[C@H](CCC(N)=O)NC(=O)[C@H](Cc2cnc[nH]2)NC(=O)[C@@H]2CCCN2C(=O)[C@H](CC(N)=O)NC(=O)[C@H](C)N(C)C(=O)[C@H](Cc2ccc(O)cc2)NC(=O)CSCC(C(=O)NCC(N)=O)NC(=O)[C@H](CCCNC(=N)N)NC(=O)[C@H](CCCC)N(C)C1=O` (stereo partly drawn) [Example 10126] ({CH2CO}-Y[NMeA]NPHQ[Hyp]WSW[dNle][NMeNle]R[ξC]G-NH2; thioether N-14), for which the pIC50 is 5.00 to 6.00.

On to `CCCC[C@H]1C(=O)N2CCOC[C@@H]2C(=O)N[C@@H](CC(=O)O)C(=O)N[C@@H](C(C)C)C(=O)N(C)[C@@H](Cc2ccccc2)C(=O)N[C@@H](CCC(=O)O)C(=O)N2CCC[C@@H]2C(=O)N[C@@H](Cc2c[nH]c3ccccc23)C(=O)N[C@@H](Cc2ccc(O)cc2)C(=O)N[C@@H](CCOC)C(=O)N[C@H](C(=O)NCC(N)=O)CSCC(=O)N[C@@H](Cc2cc(F)c(F)c(F)c2)C(=O)N(C)[C@@H](Cc2ccccc2)C(=O)N1C` [Example 10192] ({CH2CO}-[Phe(3,4,5-F3)][NMeF][NMeNle][X1]DV[NMeF]E[dP]WY[hSer](Me)CG-NH2; thioether N-13), for which the pIC50 was 7.00 to 8.00.

On to `CCCC[C@H]1C(=O)N(C)[C@@H](C)C(=O)N[C@@H](CCCNC(=N)N)C(=O)NC(C(=O)NCC(N)=O)CSCC(=O)N[C@@H](Cc2ccc(O)cc2)C(=O)N(C)[C@@H](C)C(=O)N[C@@H](CC(N)=O)C(=O)N2CCC[C@H]2C(=O)N[C@@H](Cc2cnc[nH]2)C(=O)N[C@H](CO)C(=O)N2C[C@H](O)C[C@H]2C(=O)N[C@@H](Cc2c[nH]c3ccccc23)C(=O)N[C@@H](CO)C(=O)N[C@@H](Cc2csc3ccccc23)C(=O)N1C` (stereo partly drawn) [Example 9120] ({CH2CO}-Y[NMeA]NPH[dS][Hyp]WS[Bta][NMeNle][NMeA]R[ξC]G-NH2; thioether N-14), for which the pIC50 was 7.00 to 8.00.

With `CCCC[C@H]1C(=O)N(C)[C@@H](CCCC)C(=O)N[C@@H](CCC(=O)O)C(=O)N[C@H](C(=O)NCC(N)=O)CSCC(=O)N[C@@H](Cc2ccc(O)cc2)C(=O)N(C)[C@@H](C)C(=O)N[C@@H](CC(=O)O)C(=O)N2CCC[C@H]2C(=O)N[C@@H](CO)C(=O)N[C@@H](CCC(=O)O)C(=O)N2C[C@H](O)C[C@H]2C(=O)N[C@@H](Cc2c[nH]c3ccccc23)C(=O)N[C@@H](CCN)C(=O)N[C@@H](Cc2c[nH]c3ccccc23)C(=O)N1C` [Example 5252] ({CH2CO}-Y[NMeA]DPSE[Hyp]W[Dab]W[NMeNle][NMeNle]ECG-NH2; thioether N-14), the pIC50 was 8.00 to 9.00.

With `CCCC[C@H]1C(=O)N(C)[C@@H](CCCC)C(=O)N[C@@H](CCCN)C(=O)N[C@H](C(=O)NCC(N)=O)CSCC(=O)N[C@@H](Cc2ccc(O)cc2)C(=O)N2CCCCC2C(=O)N[C@@H](CC(=O)O)C(=O)N2CCC[C@H]2C(=O)N[C@@H](CN)C(=O)N[C@@H](CCC(=O)O)C(=O)N2C[C@H](O)C[C@H]2C(=O)N[C@@H](Cc2c[nH]c3ccccc23)C(=O)N[C@@H](CO)C(=O)N[C@@H](Cc2c[nH]c3ccccc23)C(=O)N1C` (stereo partly drawn) [Example 1530] ({CH2CO}-Y[ξPip]DP[Dap]E[Hyp]WSW[NMeNle][NMeNle][Orn]CG-NH2; thioether N-14), the pIC50 was 7.00 to 8.00.

As to `CCCC[C@H]1C(=O)N2CCC[C@@H]2C(=O)N[C@@H](CC(=O)O)C(=O)N[C@@H](C(C)C)C(=O)N(C)[C@@H](Cc2ccccc2)C(=O)N[C@@H](CCCN)C(=O)N2C[C@H](O)C[C@@H]2C(=O)N[C@@H](Cc2c[nH]c3ccccc23)C(=O)N[C@@H](Cc2ccc(O)cc2)C(=O)N[C@@H](CCOC)C(=O)N[C@H](C(=O)NCC(N)=O)CSCC(=O)N[C@@H](Cc2cc(F)c(F)c(F)c2)C(=O)N(C)[C@@H](Cc2ccccc2)C(=O)N1C` [Example 10182] ({CH2CO}-[Phe(3,4,5-F3)][NMeF][NMeNle][dP]DV[NMeF][Orn][d(cisHyp)]WY[hSer](Me)CG-NH2; thioether N-13), the pIC50 is 8.00 to 9.00.

With `CCCC[C@H]1C(=O)N(C)[C@@H](CCCC)C(=O)N[C@@H](CN)C(=O)N[C@H](C(=O)NCC(N)=O)CSCC(=O)N[C@@H](Cc2ccc(O)cc2)C(=O)N2CCCC[C@H]2C(=O)N[C@@H](CC(N)=O)C(=O)N2CCC[C@H]2C(=O)N[C@@H](CN)C(=O)N[C@@H](CCC(=O)O)C(=O)N2C[C@H](O)C[C@H]2C(=O)N[C@@H](Cc2c[nH]c3ccccc23)C(=O)N[C@@H](CCN)C(=O)N[C@@H](Cc2cn(CC(=O)O)c3ccccc23)C(=O)N1C` [Example 1295] ({CH2CO}-Y[Pip]NP[Dap]E[Hyp]W[Dab][Trp(1-CH2COOH)][NMeNle][NMeNle][Dap]CG-NH2; thioether N-14), the pIC50 is 7.00 to 8.00.

With `CCCC[C@H]1C(=O)N(C)[C@@H](CCCC)C(=O)N[C@@H](CCC(=O)O)C(=O)N[C@H](C(=O)NCC(N)=O)CSCC(=O)N[C@@H](Cc2ccc(O)cc2)C(=O)N(C)[C@@H](C)C(=O)N[C@@H](CC(=O)O)C(=O)N2CCC[C@H]2C(=O)N[C@@H](CO)C(=O)N[C@@H](CCC(=O)O)C(=O)N2C[C@H](O)C[C@H]2C(=O)N[C@@H](Cc2c[nH]c3ccccc23)C(=O)N[C@@H](CCC(=O)O)C(=O)N[C@@H](Cc2c[nH]c3ccccc23)C(=O)N1C` [Example 5260] ({CH2CO}-Y[NMeA]DPSE[Hyp]WEW[NMeNle][NMeNle]ECG-NH2; thioether N-14), the pIC50 was 8.00 to 9.00.

With `CCCC[C@H]1C(=O)N2CCC[C@@H]2C(=O)N[C@@H](CC(=O)O)C(=O)N[C@@H](C(C)C)C(=O)N(C)[C@@H](Cc2ccccc2)C(=O)N[C@@H](CCC(=O)O)C(=O)N2CCOC[C@@H]2C(=O)N[C@@H](Cc2c[nH]c3ccccc23)C(=O)N[C@@H](Cc2ccc(O)cc2)C(=O)N[C@@H](CCCN)C(=O)N[C@H](C(=O)NCC(N)=O)CSCC(=O)N[C@@H](Cc2cc(F)c(F)c(F)c2)C(=O)N(C)[C@@H](Cc2ccccc2)C(=O)N1C` [Example 3645] ({CH2CO}-[Phe(3,4,5-F3)][NMeF][NMeNle][dP]DV[NMeF]E[X1]WY[Orn]CG-NH2; thioether N-13), the pIC50 was 7.00 to 8.00.
